According to patent US12371454B2, “Cyclic peptide compound having Kras inhibitory action” (priority 2019, dated 2025):
Starred links: 1 amine or outer side, 2 acyl side, 3 side chain; linkers in the order of their positions; H or OH if unused. Positions of bridges follow the written chain, without caps; N, C: chain ends. Non-standard residues stand in square brackets, D forms with d. Residues, ends and D or L forms follow the SMILES beside them. *: point of attachment. hPhe(3,5-F2-4-CF3) = N[C@@H](CCc1cc(F)c(C(F)(F)F)c(F)c1)C(=O)O; NMeAbu(3,3-F2-piperidino) = CN[C@@H](CCN1CCCC(F)(F)C1)C(=O)O; hPhe(3-Cl-4-CF3) = N[C@@H](CCc1ccc(C(F)(F)F)c(Cl)c1)C(=O)O; NEtPhe(4-CF3) = CCN[C@@H](Cc1ccc(C(F)(F)F)cc1)C(=O)O; NMePhe(2-CF3) = CN[C@@H](Cc1ccccc1C(F)(F)F)C(=O)O; NMePhe(4-Cl) = CN[C@@H](Cc1ccc(Cl)cc1)C(=O)O; NMedβ3hAla = C[C@H](CC(=O)[*:2])N(C)[*:1]; NMePhe(2-F) = CN[C@@H](Cc1ccccc1F)C(=O)O; Phe(3-Cl) = N[C@@H](Cc1cccc(Cl)c1)C(=O)O; NMeGly(cPent) = CN[C@H](C(=O)O)C1CCCC1; Pro(4,4-F2) = O=C(O)[C@@H]1CC(F)(F)CN1; NMeCha = CN[C@@H](CC1CCCCC1)C(=O)O; NMeChg = CN[C@H](C(=O)O)C1CCCCC1; NMeF = CN[C@@H](Cc1ccccc1)C(=O)O; NMeI = CC[C@H](C)[C@H](NC)C(=O)O; NMeD = CN[C@@H](CC(=O)O)C(=O)O; NMeL = CN[C@@H](CC(C)C)C(=O)O; hLeu = CC(C)CC[C@H](N)C(=O)O; NMeV = CN[C@H](C(=O)O)C(C)C; d(β3hA) = C[C@@H](N)CC(=O)O; dNMeS = CN[C@H](CO)C(=O)O; NMeA = CN[C@@H](C)C(=O)O; Piperidide = C1CCN(*)CC1; Pyrrolidide = C1CCN(*)C1; Ac5c = NC1(C(=O)O)CCCC1; Aze = O=C(O)[C@@H]1CCN1; Ac4c = NC1(C(=O)O)CCC1; Sar = CNCC(=O)O

The compounds below were run against T1, Kras and SOS1 (biotin-tagged human Kras loaded with GDP, His-tagged human SOS1) (Homo sapiens, UniProt P01116, G12D) (assay: Protein-protein interaction inhibition between Kras and SOS1 (KrasGl2D-SOS PPI) using AlphaScreen). Conditions: AlphaScreen; biotin-tagged human Kras loaded with GDP, His-tagged human SOS1; read-out: KRAS G12D-SOS PPI IC50.
T1 construct: made in house; host or cells: E. coli (stated for Kras only)
T1 sequence (P01116 1-188 isoform P01116-2 G12D): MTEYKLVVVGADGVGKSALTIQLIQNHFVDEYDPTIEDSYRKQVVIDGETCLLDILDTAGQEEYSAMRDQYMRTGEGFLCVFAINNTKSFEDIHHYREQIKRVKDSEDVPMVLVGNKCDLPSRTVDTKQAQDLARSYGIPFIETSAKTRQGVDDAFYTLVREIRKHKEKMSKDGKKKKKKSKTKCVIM
Type: binding
Procedure, shortened: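 Read-out is acceptor-bead light at 520-620 nm, arising when 680 nm-irradiated nickel donor beads pass singlet oxygen to streptavidin acceptors. The bead pair links His-tagged SOS1 with biotin-tagged, GDP-bound Kras from E. coli.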

**Q.** Which IC50 does the source give for `CC[C@H](C)[C@@H]1NC(=O)[C@H](CC(C)C)N(C)C(=O)C[C@@H](C(=O)N2CCCC2)N(C)C(=O)[C@H](C2CCCC2)N(C)C(=O)C2(CCCC2)NC(=O)[C@@H]2CCCN2C(=O)[C@H](CCc2cc(F)c(C(F)(F)F)c(F)c2)NC(=O)CN(C)C(=O)[C@H](CC2CCCCC2)N(C)C(=O)CN(C)C(=O)CN(C)C1=O` [Compound 1342] ([NMeL]I[Sar][Sar][NMeCha][Sar][hPhe(3,5-F2-4-CF3)]P[Ac5c][NMeGly(cPent)][NMeD]-Pyrrolidide; lactam N-11) here?
**A.** 0.53 nM

**Q.** For `CC[C@H](C)[C@@H]1NC(=O)[C@H](CC(C)C)N(C)C(=O)C[C@@H](C)N(C)C(=O)[C@H]([C@@H](C)CC)N(C)C(=O)C2(CCC2)NC(=O)[C@@H]2CC(F)(F)CN2C(=O)[C@H](CCc2ccc(C(F)(F)F)c(Cl)c2)NC(=O)CN(C)C(=O)[C@H](Cc2ccc(C(F)(F)F)cc2)N(CC)C(=O)[C@@H]2CCN2C(=O)[C@H](C)N(C)C1=O` [Compound 833] (cyclo([Ac4c][NMeI][NMedβ3hAla][NMeL]I[NMeA][Aze][NEtPhe(4-CF3)][Sar][hPhe(3-Cl-4-CF3)][Pro(4,4-F2)])), which IC50 is on record?
**A.** 9.1 nM

**Q.** With `CC[C@H](C)[C@@H]1NC(=O)[C@H](CC(C)C)N(C)C(=O)C[C@@H](C(=O)N2CCCCC2)N(C)C(=O)[C@H](C(C)C)N(C)C(=O)C2(CCCC2)NC(=O)[C@@H](CO)N(C)C(=O)[C@H](CCc2ccc(C(F)(F)F)c(Cl)c2)NC(=O)CN(C)C(=O)[C@H](CC2CCCCC2)N(C)C(=O)[C@@H]2CCN2C(=O)[C@H](C)N(C)C1=O` [Compound 1444] ([NMeL]I[NMeA][Aze][NMeCha][Sar][hPhe(3-Cl-4-CF3)][dNMeS][Ac5c][NMeV][NMeD]-Piperidide; lactam N-11) as the compound, how does the IC50 read?
**A.** 8.8 nM

**Q.** Which IC50 does the source give for `CC[C@H](C)[C@@H]1NC(=O)[C@H](CC(C)C)N(C)C(=O)C[C@@H](C(=O)N(C)C)N(C)C(=O)[C@H](C2CCCC2)N(C)C(=O)C2(CCCC2)NC(=O)[C@H](Cc2ccccc2F)N(C)C(=O)[C@H](CCc2ccc(C(F)(F)F)c(Cl)c2)NC(=O)CN(C)C(=O)[C@H](CC2CCCCC2)N(C)C(=O)[C@@H]2CCN2C(=O)[C@H](C)N(C)C1=O` [Compound 43] ([NMeL]I[NMeA][Aze][NMeCha][Sar][hPhe(3-Cl-4-CF3)][NMePhe(2-F)][Ac5c][NMeGly(cPent)][NMeD]-NMe2; lactam N-11) here?
**A.** 31 nM

**Q.** For `CC(C)CC[C@@H]1NC(=O)[C@H](CC(C)C)N(C)C(=O)C[C@@H](C(=O)N2CCCCC2)N(C)C(=O)[C@H](C2CCCCC2)N(C)C(=O)C2(CCCC2)NC(=O)[C@@H]2CCCN2C(=O)[C@H](CCc2ccc(C(F)(F)F)c(Cl)c2)NC(=O)CN(C)C(=O)[C@H](CC2CCCCC2)N(C)C(=O)CN(C)C(=O)CN(C)C1=O` [Compound 1651] ([NMeL][hLeu][Sar][Sar][NMeCha][Sar][hPhe(3-Cl-4-CF3)]P[Ac5c][NMeChg][NMeD]-Piperidide; lactam N-11), which IC50 is on record?
**A.** 4.9 nM

**Q.** How did the IC50 turn out when `CC[C@H](C)[C@@H]1NC(=O)[C@H](C)N(C)C(=O)C[C@@H](C)NC(=O)[C@H](C(C)C)N(C)C(=O)C2(CCCC2)NC(=O)[C@@H]2CCCN2C(=O)[C@H](CCc2ccc(C(F)(F)F)c(Cl)c2)NC(=O)CN(C)C(=O)[C@H](CC2CCCCC2)N(C)C(=O)CN(C)C(=O)CN(C)C1=O` [Compound 697] (cyclo([Ac5c][NMeV][d(β3hA)][NMeA]I[Sar][Sar][NMeCha][Sar][hPhe(3-Cl-4-CF3)]P)) was run?
**A.** 12 nM

**Q.** For `CC[C@H](C)[C@@H]1NC(=O)[C@H](CC(C)C)N(C)C(=O)C[C@@H](C)NC(=O)[C@H](C(C)C)N(C)C(=O)C2(CCCC2)NC(=O)[C@@H]2CCCN2C(=O)[C@H](CCc2ccc(C(F)(F)F)c(Cl)c2)NC(=O)CN(C)C(=O)[C@H](Cc2ccccc2C(F)(F)F)N(C)C(=O)CN(C)C(=O)CN(C)C1=O` [Compound 1613] (cyclo([Ac5c][NMeV][d(β3hA)][NMeL]I[Sar][Sar][NMePhe(2-CF3)][Sar][hPhe(3-Cl-4-CF3)]P)), which IC50 is on record?
**A.** 110 nM

**Q.** How did the IC50 turn out when `CC[C@H](C)[C@@H]1NC(=O)[C@H](CC(C)C)N(C)C(=O)C[C@@H](C(=O)N(C)C)N(C)C(=O)[C@H](C2CCCC2)N(C)C(=O)[C@H](C(C)C)NC(=O)[C@H](CCN2CCCC(F)(F)C2)N(C)C(=O)[C@H](CCc2ccc(C(F)(F)F)c(Cl)c2)NC(=O)CN(C)C(=O)[C@H](CC2CCCCC2)N(C)C(=O)[C@@H]2CCN2C(=O)[C@H](C)N(C)C1=O` [Compound 389] ([NMeL]I[NMeA][Aze][NMeCha][Sar][hPhe(3-Cl-4-CF3)][NMeAbu(3,3-F2-piperidino)]V[NMeGly(cPent)][NMeD]-NMe2; lactam N-11) was run?
**A.** 45 nM

**Q.** With `CC[C@H](C)[C@@H]1NC(=O)[C@H](C)N(C)C(=O)C[C@@H](C(=O)N2CCCC2)NC(=O)[C@H](CC(C)C)N(C)C(=O)[C@H](Cc2ccccc2)N(C)C(=O)[C@H](CC(C)C)NC(=O)[C@H](Cc2cccc(Cl)c2)NC(=O)CN(C)C(=O)[C@H](Cc2ccc(Cl)cc2)N(C)C(=O)CN(C)C(=O)CN(C)C1=O` [Compound 758] ([NMeA]I[Sar][Sar][NMePhe(4-Cl)][Sar][Phe(3-Cl)]L[NMeF][NMeL]D-Pyrrolidide; lactam N-11) as the compound, how does the IC50 read?
**A.** 140 nM
